Measurements published in ChEMBL document CHEMBL1132758, “Synthesis and estrogenic activities of novel 7-thiosubstituted estratriene derivatives” (Bioorg Med Chem Lett, 2000).

What was measured:
[1] = biological target: T1, Estrogen receptor (Homo sapiens, UniProt P03372)
T1 sequence (P03372 whole entry): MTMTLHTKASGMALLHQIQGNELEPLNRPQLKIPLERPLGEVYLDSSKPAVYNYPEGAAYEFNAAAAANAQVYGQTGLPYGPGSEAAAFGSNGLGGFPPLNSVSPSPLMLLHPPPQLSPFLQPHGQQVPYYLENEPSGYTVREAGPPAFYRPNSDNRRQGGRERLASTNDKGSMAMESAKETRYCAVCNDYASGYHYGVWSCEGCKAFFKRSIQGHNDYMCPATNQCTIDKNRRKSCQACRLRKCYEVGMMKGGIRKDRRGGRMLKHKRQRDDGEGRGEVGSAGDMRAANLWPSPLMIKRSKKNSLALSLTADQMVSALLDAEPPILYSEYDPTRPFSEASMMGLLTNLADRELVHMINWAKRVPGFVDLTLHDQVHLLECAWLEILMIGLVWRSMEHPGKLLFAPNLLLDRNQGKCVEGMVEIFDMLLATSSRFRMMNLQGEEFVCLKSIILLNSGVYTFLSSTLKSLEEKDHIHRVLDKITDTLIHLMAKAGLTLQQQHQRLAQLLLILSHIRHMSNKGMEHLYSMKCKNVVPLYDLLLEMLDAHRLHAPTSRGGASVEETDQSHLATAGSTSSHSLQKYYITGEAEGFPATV

[2] = biological target: T2, Estrogen receptor beta (Homo sapiens, UniProt Q92731)
[3] = biological target: T1, Estrogen receptor; remark: listed apart in the source
Description: Agonist effect on transcriptional activation in MCF-7 cells expressing estrogen receptor alpha

[4] = biological target: T1, Estrogen receptor; remark: listed apart in the source
Description: Antagonist effect on transcriptional activation in MCF-7 cells expressing estrogen receptor alpha

[5] = biological target: T1, Estrogen receptor; conditions: mcf7
[6] = biological target: T1, Estrogen receptor; conditions: mcf7; remark: listed apart in the source
[7] = biological target: T2, Estrogen receptor beta; experiment: Displacement of [3H]17-beta-estradiol from human Estrogen receptor beta; Not active means no effect at < 1000 nM

T2 sequence (Q92731 whole entry): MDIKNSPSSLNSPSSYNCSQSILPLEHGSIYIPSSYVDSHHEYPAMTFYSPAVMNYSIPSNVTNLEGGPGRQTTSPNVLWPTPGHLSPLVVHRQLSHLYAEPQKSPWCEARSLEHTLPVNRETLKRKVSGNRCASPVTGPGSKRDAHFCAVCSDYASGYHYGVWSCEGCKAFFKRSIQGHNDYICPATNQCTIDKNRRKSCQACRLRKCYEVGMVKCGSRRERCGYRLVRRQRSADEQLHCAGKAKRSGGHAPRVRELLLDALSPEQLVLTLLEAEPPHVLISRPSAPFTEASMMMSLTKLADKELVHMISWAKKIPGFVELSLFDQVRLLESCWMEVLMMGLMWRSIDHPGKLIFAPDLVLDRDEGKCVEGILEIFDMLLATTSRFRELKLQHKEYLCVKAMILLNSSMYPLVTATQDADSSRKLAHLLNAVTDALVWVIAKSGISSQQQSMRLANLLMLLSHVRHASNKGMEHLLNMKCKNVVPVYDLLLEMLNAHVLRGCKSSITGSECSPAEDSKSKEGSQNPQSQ

SMILES | IC50 [1] [nM] | IC50 [2] [nM] | EC50 [3] [nM] | IC50 [4] [nM] | IC50 [5] | EC50 [6] | IC50 [7]
CCCCN(C)C(=O)CCCCCCCCCCS[C@H]1[C@@H]2[C@H](CC[C@]3(C)[C@@H](O)CC[C@@H]23)c2ccc(O)cc2[C@H]1O | 32 | 32 | 40 | 316 |  |  | 
C[C@]12CC[C@@H]3c4ccc(O)cc4C(O)[C@@H](Sc4ccc(Br)cc4)[C@H]3[C@@H]1CC[C@@H]2O (some centres not stated) | 397 | 63 | 7 |  | Not Active |  | 
CCCCN(C)C(=O)CCCCCCCCCCS[C@@H]1Cc2cc(O)ccc2[C@H]2CC[C@]3(C)[C@@H](O)CC[C@H]3[C@@H]21 | 9 | 9 |  | 3.5 |  | Not Active | 
CC(=O)O[C@H]1CC[C@H]2[C@@H]3[C@H](Sc4ccc(Br)cc4)C(=O)c4cc(O)ccc4[C@H]3CC[C@]12C |  |  |  |  | Not Active |  | Not Active
CN(C)C(=O)/C=C/c1ccc(S[C@@H]2Cc3cc(O)ccc3[C@H]3CC[C@]4(C)[C@@H](O)CC[C@H]4[C@@H]32)cc1 | 94 | 59 | 173 |  | Not Active |  | 
COc1ccc2c(c1)C[C@@H](Sc1ccc(OCCN3CCCCC3)cc1)[C@@H]1[C@@H]2CC[C@]2(C)[C@@H](O)CC[C@@H]12 |  |  |  |  |  |  | Not Active
C[C@]12CC[C@@H]3c4ccc(O)cc4C[C@@H](Sc4ccc(/C=C/C(=O)O)cc4)[C@H]3[C@@H]1CC[C@@H]2O | 46 | 21 | 13 |  | Not Active |  | 
CCCCN(C)C(=O)CCCCCCCCCCS[C@@H]1C(=O)c2cc(O)ccc2[C@H]2CC[C@]3(C)[C@@H](O)CC[C@H]3[C@H]12 | 33 | 37 | 28 | 519 |  |  | 
